US20230312646A1, “ANTIBACTERIAL PEPTIDES” (priority 2020, published 2023)
Where two headings read alike, the source gives them in different places. Square brackets hold non-standard residues; d marks the D form. Peptide text beside a SMILES is read from it. * marks the point of attachment. Phe(3,4-Cl2) = N[C@@H](Cc1ccc(Cl)c(Cl)c1)C(=O)O; Oic = O=C(O)[C@@H]1C[C@@H]2CCCC[C@@H]2N1; dNMeR = CN[C@H](CCCNC(=N)N)C(=O)O; Tridecanoyl = CCCCCCCCCCCCC(=O)*; Cha = N[C@@H](CC1CCCCC1)C(=O)O; NMeDab = CN[C@@H](CCN)C(=O)O

Experiments:
[1] = molecular target: clamps from Acinetobacter baumannii (^AbSC); assay: ITC of peptides with A. baumannii clamp; assay type: binding; settings: ITC at 25° C.; means of three independant experiments, standard deviations in brackets; read-out: affinities (Kd in nM), A. baumannii
Protocol: (§1) ITC experiments were performed using an iTC200 or a PEAQ-ITC instrument (Microcal Malvern Panalytical). Peptides (300 or 600 µM) were titrated at 25° C. by sequential injections (usually 2 µl each) into an SC solution (30 or 60 µM). Data were corrected for heat of injection by subtracting the signal of the titration of peptides into proteiN-free buffer solution (Hepes 10 mM pH 7.4, NaCl 0.15 M, EDTA 3 mM). Each titration was performed at least twice. Analyses of experimental data were performed following a classical treatment with the AFFINImeter software (https://www.affinimeter.com; S4S, Santiago de Compostela, Spain). In addition, kinetic information was obtained in some cases with kinITC as implemented in the software AFFINImeter.
(§2) Protein quality was assessed by DLS. The purification of clamps from other bacteria used the same procedure.
(§3) The bacterial sliding clamps present a highly conserved binding site among bacterial species. […] All these species belong to the ESKAPE group and are in the first priority bacteria list established by the World Health Organization for which new antibiotics are urgently needed.

[2] = molecular target: T1, Escherichia coli SC (^EcSC) (Escherichia coli, UniProt P0A988); assay: biochemical; assay type: binding
T1 construct: His tag (inferred from the pET15b vector and Ni-NTA purification) (N); made in house; host or cells: E. coli
T1 sequence (P0A988 whole entry): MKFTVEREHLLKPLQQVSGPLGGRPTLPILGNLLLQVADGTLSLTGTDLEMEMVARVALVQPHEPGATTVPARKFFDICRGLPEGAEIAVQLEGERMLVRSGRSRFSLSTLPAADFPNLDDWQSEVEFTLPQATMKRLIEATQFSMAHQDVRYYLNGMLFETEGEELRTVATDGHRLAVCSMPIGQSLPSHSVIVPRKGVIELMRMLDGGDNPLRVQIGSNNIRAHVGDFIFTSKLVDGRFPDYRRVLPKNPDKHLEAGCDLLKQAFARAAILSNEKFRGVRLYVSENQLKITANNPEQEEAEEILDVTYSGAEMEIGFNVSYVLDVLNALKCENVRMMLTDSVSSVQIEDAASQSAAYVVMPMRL
Protocol: The procedure has been described previously (Wolff, P.; Oliéric, V.; Briand, J. P.; Chaloin, O.; Dejaegere, A.; Dumas, P.; Ennifar, E.; Guichard, G.; Wagner, J.; Burnouf, D. Y., Structure-Based Design of Short Peptide Ligands Binding onto the E. coli Processivity Ring. J. Med. Chem. 2011, 54 (13), 4627-4637). Briefly, E.coli cells were transformed with plasmids pET15b containing the dnaN gene from E. coli and were grown in LB at 37° C. to OD 0.5, then induced by IPTG (0.1 mM) at 28° C. overnight. dnaN proteins fractions were first enriched on a Ni-NTA column, eluted with a histidine step (300 mM) and further purified on a Source Q column in buffer containing 20 mM Tris HCI pH 7.5, 0.5 mM EDTA and 10% (v/v) glycerol, using a gradient from 0 to 0.5 M NaCl. After a final ultracentrifugation (45 K, 1 h, 20° C.), soluble proteins were concentrated on a Centricon 30 K (Millipore) in the same buffer and stored at 4° C. in 2 M ammonium sulfate. Buffer exchange was performed on Centrikon 10 K at 4° C. before use and protein quality was assessed by DLS.
as §1
All newly synthesized peptides were tested for their interaction with ^EcSC by ITC at 25° C. As a general rule, all thermodynamic profiles reveal an exothermic interaction, and a non-favorable entropic component. The resulting negative Gibb’s free energies characterize a spontaneous interaction. The analysis of raw data by the Affinimeter® software also gave access to kinetics rate constant of the interaction.

[3] = molecular target: T2, clamps from Pseudomonas aeruginosa (^PaSC) (Pseudomonas aeruginosa, UniProt Q9I7C4); assay: ITC of peptides with P. aeruginosa clamp; assay type: binding; settings: ITC at 25° C., means of three independant experiments, standard deviations in brackets
T2 construct: made in house
T2 sequence (Q9I7C4 whole entry): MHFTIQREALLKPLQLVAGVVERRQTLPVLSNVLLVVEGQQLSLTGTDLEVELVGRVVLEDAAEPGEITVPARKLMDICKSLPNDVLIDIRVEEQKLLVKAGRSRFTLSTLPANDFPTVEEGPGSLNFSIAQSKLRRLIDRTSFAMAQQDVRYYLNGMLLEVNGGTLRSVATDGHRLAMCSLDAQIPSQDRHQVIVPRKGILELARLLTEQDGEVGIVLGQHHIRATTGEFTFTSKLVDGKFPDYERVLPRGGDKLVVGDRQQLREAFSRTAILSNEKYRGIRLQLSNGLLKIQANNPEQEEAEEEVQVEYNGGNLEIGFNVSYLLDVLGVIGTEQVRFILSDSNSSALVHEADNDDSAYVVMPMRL
Protocol: as §1, §2, §3

[4] = tested on: Bacillus subtilis 168; assay type: cell-based
Protocol: (§4) Antimicrobial activity of peptide 5d was assessed through the measurement of the Minimal Inhibition Concentration (MIC). MIC assays were performed in duplicate in 96-well microtiter plates on the basis of the protocol recommended by the Clinical and Laboratory Standards Institute. Laboratory strains of Escherichia coli D22, Bacillus subtilis 168 and Stpaphylococcus aureus HG001were cultivated on either LB-agar plates or liquid 1x Mueller Hinton broth. Briefly, a mix of 3-4 fresh (less than 36 hours) colonies grown on LB-agar plates were inoculated in 3 ml of MH broth and incubated for about 4 h at 37° C. under agitation. Dilution of these cultures to an OD600 nm of 0.002 was made in MH broth. Within a time laps not exceeding 30 min, 50 µl of this cell suspension was added to 50 µl of MH broth (containing or not serial dilutions of the peptide 5 d in MH broth) in wells of a 96-well round bottom microwell plate (Greiner; final cell density of about 5 × 10^5 cfu/ml). Plates were incubated at 37° C. for 18-20 hours. MIC was defined as the minimal antibiotic concentration that results in no visible growth of the strain in the micotiter plate well.

[5] = tested on: Stpaphylococcus aureus HG001; assay type: cell-based, S. aureus
Protocol: as §4

[6] = tested on: Escherichia coli D22; assay: MIC assay, E. coli; assay type: cell-based; settings: MH broth, 37° C., 18-20 hours
Protocol: as §4

[7] = molecular target: ^EcSC (Escherichia coli, UniProt P0A988); settings: SPR, J. Med. Chem. 2011; read-out: Kd previously determined by SPR; cited from earlier work
Sequence of ^EcSC (P0A988 whole entry): as the sequence (P0A988 whole entry) above

[8] = affinities (Kd in nM), E.coli, ITC at 25° C., means of three independant experiments, standard deviations in brackets

Row | SMILES | Kd [1] | ΔG (kcal mol^-1) ([2]; ITC at 25° C.) | Kd ([2]; Kd (nM), ITC at 298.15 K (25° C.)) | Kd [2, 8] | kon ([2]; read-out: kon (M^-1 s^-1)) | Kd ([3]; affinities (Kd in nM), P. aeruginosa) | MIC [4]; 168 | MIC ([4]; MH broth, 37° C., 18-20 hours) | MIC [5] | MIC ([5]; MH broth, 37° C., 18-20 hours) | MIC (µg/ml) [6] | MIC µM [6] | ΔG ([2]; ITC at 25° C.) | ΔG (kcal/mol) ([2]; ITC at 298.15 K (25° C.)) | kon ([2]; read-out: kon (M^-1.s^-1)) | Kd [7] | Kd ([3]; read-out: affinities (Kd in nM), P. aeruginosa)
1 | CC(=O)N[C@@H](CCC(N)=O)C(=O)N[C@@H](CC1CCCCC1)C(=O)N[C@@H](CC(=O)O)C(=O)N[C@@H](CC(C)C)C(=O)N1[C@H](C(=O)N[C@@H](Cc2ccc(Cl)c(Cl)c2)C(=O)O)C[C@@H]2CCCC[C@@H]21 [P50] (Ac-Q[Cha]DL[Oic][Phe(3,4-Cl2)]-OH) | 70 nM | -10.1 (± 0.2) kcal mol^-1 | 39 nM | 39 nM | 60000 M⁻¹ s⁻¹ | 20 nM | – | – | – | – | – | – | – | – | – | – | –
2 | CCCCCCCCCCCCC(=O)N(C)[C@H](CCCNC(=N)N)C(=O)N[C@@H](CCC(N)=O)C(=O)N[C@@H](CC1CCCCC1)C(=O)N(C)[C@@H](CCNC(C)=O)C(=O)N[C@@H](CC(C)C)C(=O)N[C@@H](Cc1ccc(Cl)c(Cl)c1)C(N)=O [Peptide 5d] (Tridecanoyl-[dNMeR]Q[Cha][NMeDab](Ac)L[Phe(3,4-Cl2)]-NH2) | – | – | – | – | – | – | 4 µM | 4.6 µg/mL | 4 to 8 µM | 4.6 to 9.2 µg/mL | 2.3 to 4.6 µg/mL | 2 to 4 µM | – | – | – | – | –
3 | CC(=O)N[C@@H](CCC(N)=O)C(=O)N[C@@H](CC1CCCCC1)C(=O)N[C@@H](CC(=O)O)C(=O)N[C@@H](CC(C)C)C(=O)N[C@@H](Cc1ccccc1)C(=O)O [P1, Ac-Gln-Cha-Asp-Leu-Phe-OH, reference compound] (Ac-Q[Cha]DLF-OH) | 655 nM | – | – | 170 nM | – | – | – | – | – | – | – | – | -9.2 kcal/mol | -9.2 (± 0.2) kcal/mol | 40000 M⁻¹ s⁻¹ | 170 nM | 600 nM
